Assay results taken from US10690666B2, “Methods and compositions for modulating TH-GM cell function” (National University of Singapore, priority 2014, dated 2020).

Tests used:
[1] = test system: naïve CD4+ T cells; assay: In vitro TH-GM (GM-CSF-expressing TH) differentiation from naïve CD4+ T cells; assay type: cell-based, mouse; conditions: anti-CD3 and anti-CD28 plus cytokine or antibody
Experimental: Naïve CD4^+ T cells were primed with plate-bound anti-CD3 and soluble anti-CD28 in the presence of a combination of various cytokines and neutralizing antibodies as indicated. GM-CSF, IL-17 and IFN-γ expression was analyzed by intracellular staining (FIG. 13A) or RT-PCR (FIG. 13B)
GM-CSF and IFN-γ expression in naive CD4^+ T cells activated for 72 h with anti-CD3 alone or plus anti-CD28 (FIG. 14A). In FIG. 14B, sorted naïve CD4^+ T cells were stimulated with anti-CD3 and anti-CD28 in the presence of neutralizing antibodies against IL-12 and IFN-γ without or with the addition of IL-6. The frequencies of GM-CSF^+ and IL-17^+ cells were measured by intracellular staining (FIG. 14B). In FIG. 14C, naïve CD4^+ T cells from Stat3^+/+ and Stat3^−/− mice were polarized under conditions as indicated for 72 h. The frequencies of GM-CSF^+ and IL-17^+ cells were analyzed. In FIG. 14D, naïve CD4^+ T cells were activated with anti-CD3 and anti-CD28 in the presence of IL-2 or anti-IL-2. The frequencies of GM-CSF^+, IL-17^+ and IFN-γ^+ cells were analyzed.
Naïve CD4^+ T cells were primed with plate-bound anti-CD3 and soluble anti-CD28 in the presence of various concentration of IL-7 as indicated. GM-CSF and IFN-γ expression was analyzed by intracellular staining (FIG. 15A) or ELISA (FIG. 15B). In FIGS. 15C and 15D, Stat5^+/+ and Stat5^−/− naïve CD4^+ T cells were activated with anti-CD3 and anti-CD28 in the presence IL-7 for 3 days. GM-CSF, IL-17 and IFN-γ expression was analyzed by intracellular cytokine staining (FIG. 15C). GM-CSF secretion was measured by ELISA (FIG. 15D).
In FIG. 22E, naïve CD4^+ T cells were isolated and activated under neutral condition or TH-GM cell-favoring condition with the addition of different concentrations of STAT5 inhibitor for 3 days. GM-CSF and IFN-γ expression was analyzed by intracellular cytokine staining and flow cytometry.

[2] = test system: naïve CD4+ T cells; assay: GM-CSF mRNA expression in naïve CD4+ T cells stimulated with IL-2 or IL-7, RT-PCR; assay type: cell-based, mouse; conditions: anti-CD3 and anti-CD28 plus cytokine
Experimental: (§1) FIGS. 17A-17C show flow cytometry of CD25 and CD127 on the surface of naïve CD4^+ T cells or cells activated with anti-CD3 and anti-CD28 at various time points as indicated. […] The RT-PCR data were normalized to β-Actin, and expression in naïve T cells activated for 2 h without cytokine was set to 1.
The primer sequences are available upon request.

[3] = test system: naïve CD4+ T cells; assay: In vitro TH17 differentiation; assay type: cell-based, mouse; conditions: data not shown
Experimental: CD4^+ T cells were obtained from spleens and lymph nodes by positive selection and magnetic separation (Miltenyi Biotech), followed by purification of naïve CD4^+ T cell population (CD4^+CD25^−CD62L^hiCD44^lo) sorted with FACS Aria. Naïve CD4^+ T cells were stimulated with plate-bound anti-CD3 (3 μg/ml; BD Pharmingen) and anti-CD28 (1 μg/ml; BD Pharmingen) in presence of different combinations of neutralizing antibodies and cytokines for 3˜4 days: for neutral conditions, no addition of any cytokine or neutralizing antibody; for TH1 conditions, IL-12 (10 ng/ml), and anti-IL-4 (10 μg/ml, BD Pharmingen); for TH17 conditions, hTGF-β (3 ng/ml), IL-6 (20 ng/ml), anti-IFN-γ (10 μg/ml, eBioscience), and anti-IL-4 (10 μg/ml); for an alternative TH17 conditions, IL-6 (20 ng/ml), IL-23 (10 ng/ml), IL-1β (10 ng/ml), anti-IFN-γ (10 μg/ml), and anti-IL-4 (10 μg/ml). […] Cells were acquired on the LSR II (BD Biosciences) and analyzed with FlowJo software (Tree Star).
Stat5 deletion (Cd4-cre; Stat5^f/−) mice was reported to develop peripheral lymphopenia, with a reduction of both CD4^+ and CD8^+ T cells (Yao et al., 2006). […] Furthermore, increased frequencies of IL-17^+ and IFN-γ^+ cells were detected among CD4^+ T cells in spleens of Stat5^−/− mice (FIG. 4C), which further support the idea that the resistance to EAE in Stat5^−/− mice is likely independent of TH1 and TH17 generation. […]

[4] = test system: STAT5; assay: Cytokine-induced STAT5 activation in CD4+ T cells, immunoblotting; assay type: cell-based, mouse; conditions: for STAT5 activation (tyrosine phosphorylation): CD4+ T cells cultured with TGF-β and IL-6 3 days, starved 6 h
Experimental: (§2) In FIG. 10A, purified CD4^+ T cells were cultured with TGF-β and IL-6 for 3 days, followed by starvation for 6 h. Then cells were treated with various cytokines for 30 min, and pSTAT3 and pSTAT5 was determined by immunoblotting. STAT3 and STAT5 were further detected after stripping. […] The RT-PCR data were normalized to β-Actin. […] The frequencies of GM-CSF^+ and IL-17^+ cells among CD4^+CD44^hi T cells were measured by flow cytometry. *p<0.05.
as §1
As shown in FIGS. 18A and 18B, CD4^+ T cells were activated with anti-CD3 and anti-CD28 for 3 days. […] The pTyr-STAT5 and β-Actin were detected by immunoblotting (FIG. 18A). GM-CSF mRNA expression was measured by RT-PCR (FIG. 18B). The RT-PCR data were normalized to β-Actin, and expression in cells without cytokine stimulation was set to 1. The ChIP assay shown in FIG. 18C was performed with normal IgG or STAT5-specific antibody. The binding of antibodies to Csf2 promoter region was detected by RT-PCR.
(§3) Next, the mechanism by which STAT5 regulates GM-CSF expression was investigated. […] Therefore, the effect of these two cytokines on GM-CSF induction in autoreactive T cells was further examined. […] GM-CSF and IL-17 production by CD4^+ T cells were analyzed by intracellular cytokine staining.

[5] = test system: CD4+CD44hi T cells; assay: MOG35-55 challenge of splenocytes from immunized mice, GM-CSF expression; assay type: cell-based, mouse; conditions: MOG35-55 (20 μg/ml) plus cytokine, 48 h
Experimental: as §2, §3

[6] = test system: CD62LhiCD44lo and CD62LloCD44hi T cells; assay: GM-CSF expression in sorted CD62LhiCD44lo and CD62LloCD44hi T cells, RT-PCR; assay type: cell-based, mouse; conditions: anti-CD3 and anti-CD28, cytokine 4 h
Experimental: Splenocytes were obtained from MOG35-55/CFA-immunized Stat5^+/+ and Stat5^−/− mice before disease onset and challenged with MOG35-55 (20 μg/ml) in the absence or presence of IL-7 for 48 h. Frequencies of GM-CSF^+ and IL-17^+ cells among CD4^+CD44^hi T cells were measured by flow cytometry (FIG. 11A). GM-CSF secretion was measured by ELISA (FIG. 11B). Data represent two independent experiments with two to three mice per group. Splenic CD62L^hiCD44^lo and CD62L^loCD44^hi T cells from MOG35-55/CFA-immunized mice were sorted out. Cells were stimulated with anti-CD3 and anti-CD28 in the absence or presence of IL-7 for 4 h and then harvested for the analysis of GM-CSF expression by RT-PCR (FIG. 11C). *p<0.05
Total RNA was extracted from cells with RNeasy kit (Qiagen) according to the manufacturer's instruction. Complementary DNA (cDNA) was synthesized with Superscript reverse transcriptase (Invitrogen). Gene expressions were measured by 7500 real-time PCR system (Applied Biosystems) with SYBR qPCR kit (KAPA). Actinb, Gapdh or Rn18S was used as internal control. The primer sequences are available upon request.
Thus, CD62L^hiCD44^lo and CD62L^loCD44^hi T cells were sorted from Stat5^−/− mice and littermate controls during EAE development, and then activated cells in the presence or absence of IL-7.

[7] = test system: naïve CD4+ T cells; conditions: El-Behi et al., 2011; cited from earlier work

| Molecule | GM-CSF-expressing cell differentiation from naïve CD4+ T cells [1] | STAT5 activation (tyrosine phosphorylation) ([4]; cytokine 30 min) | other results |
| --- | --- | --- | --- |
| IL-6: cytokine (R&D Systems), essential for TH17 differentiation | profound inhibitory effect | – | – |
| IL-7: cytokine interleukin-7 (R&D Systems) | strongly promoted | potently activated STAT5 | GM-CSF mRNA expression in naïve CD4+ T cells [2]: upregulated GM-CSF mRNA expression; TH17 differentiation [3]: not observed to have a demonstrable effect; STAT5 activation, Csf2 promoter binding and GM-CSF mRNA in activated CD4+ T cells ([4]; CD4+ T cells activated 3 days, rested, then cytokine): induced STAT5 activation, Csf2 promoter binding and GM-CSF mRNA upregulation; STAT5 activation in naïve CD4+ T cells ([4]; naïve CD4+ T cells, cytokine 30 min): induced STAT5 activation; frequency of GM-CSF+ T cells / GM-CSF expression in CD4+CD44hi T cells [5]: significantly promoted GM-CSF expression; GM-CSF expression in CD62LhiCD44lo and CD62LloCD44hi T cells [6]: promoted GM-CSF expression |
| IL-1β: cytokine (R&D Systems) | did not increase GM-CSF-expressing cell differentiation | neither IL-23 nor IL-1β seemed to be potent STAT5 stimulators | – |
| TGF-β: cytokine (R&D Systems) | – | – | GM-CSF expression [7]: inhibits GM-CSF expression |
| IL-23: cytokine (R&D Systems) (protein, UniProt Q9NPF7 20-189; P29460 23-328, looked up) Interleukin-23 subunit alpha: RAVPGGSSPAWTQCQQLSQKLCTLAWSAHPLVGHMDLREEGDEETTNDVPHIQCGDGCDPQGLRDNSQFCLQRIHQGLIFYEKLLGSDIFTGEPSLLPDSPVGQLHASLLGLSQLLQPEGHHWETQQIPSLSPSQPWQRLLLRFKILRSLQAFVAVAARVFAHGAATLSP Interleukin-12 subunit beta: IWELKKDVYVVELDWYPDAPGEMVVLTCDTPEEDGITWTLDQSSEVLGSGKTLTIQVKEFGDAGQYTCHKGGEVLSHSLLLLHKKEDGIWSTDILKDQKEPKNKTFLRCEAKNYSGRFTCWWLTTISTDLTFSVKSSRGSSDPQGVTCGAATLSAERVRGDNKEYEYSVECQEDSACPAAEESLPIEVMVDAVHKLKYENYTSSFFIRDIIKPDPPKNLQLKPLKNSRQVEVSWEYPDTWSTPHSYFSLTFCVQVQGKSKREKKDRVFTDKTSATVICRKNASISVRAQDRYYSSSWSEWASVPCS | did not increase GM-CSF-expressing cell differentiation | neither IL-23 nor IL-1β seemed to be potent STAT5 stimulators | – |
